Reference: patent US10407712B2, “Methods, compositions and kits for high throughput kinase activity screening using mass spectrometry and stable isotopes” (President and Fellows of Harvard College, priority 2008, dated 2019)

Tests used:
[1] = test system: HEK293 cells; assay: Single-reaction KAYAK of HEK293 cells treated with kinase inhibitors followed by insulin stimulation; type: cell-based, human; conditions: HEK293, inhibitor 30 min then 100 nM insulin 30 min
[2] = test system: HEK293 cells; assay: KAYAK of lysates from HEK293 cells pretreated with inhibitors before mitogen stimulation; type: cell-based, human
Experimental: For drug inhibition studies, cells were pretreated with U0126 (5 μM) or Wortmannin (100 nM) for 1 hr prior to hormone stimulation.
(§1) Peptides were synthesized, purified and quantified as described in Yu et al. 2009 Proc Natl Acad Sci USA 106: 11606-11611, hereby incorporated by reference herein in its entirety. Each substrate peptide (250 pmol) was mixed to a final concentration of 5 μM in the 50 μL reaction mixture. Alternatively, reactions were performed using 6 μg cell lysate aliquotes mixed to a final volume of 20 μl. Cell lysate or other kinase source was added to the substrate mixture in 25 mM Tris-Cl, pH 7.5, containing 5 mM ATP, 7.5 mM MgCl2, 0.2 mM EGTA, 7.5 mM β-glycerophosphate, 0.1 mM Na3VO4, and 0.1 mM DTT. The reaction was incubated at 25° C. for 60 min and then terminated by the addition of 100 μl of 1% trifluoroacetic acid (TFA) containing a known amount of an internal standard (typically 20 pmol). Alternatively, the reaction was incubated at 20° C. for 45 min before termination with TFA.
The KAYAK method was applied to measure the effect of pharmacological inhibitors or siRNA-mediated knockdown of kinase pathways after mitogen stimulation (see FIGS. 5A-5D and 8 for data obtained by immunoblotting analysis of cell lysates). […] EGF stimulated cell lysates strongly phosphorylated peptides B6, C6, C11 and G5 and these effects were blocked by pretreating cells with the MEK-specific inhibitor U0126.
In contrast, phosphorylation levels of these peptides were not changed as a result of insulin stimulation. […] PMA activates the MAPK pathway by activating the upstream kinase, PKC (Blenis et al. 1993 Proc Natl Acad Sci USA 90: 5889-5892). Because the observed increase in phosphorylation was reversed by prior treatment of cells with U0126, it was concluded that these peptides were not PKC substrates. Rather they were likely phosphorylated by kinases downstream of the MAPK pathway.
(§2) It was observed that basal phosphorylation of these peptides was not affected by knockdown and likely was the result of remaining RSK isoforms or other basophilic kinases (FIG. 5C).

[3] = test system: HeLa cell lysates; assay: KAYAK in vitro kinase assay, lysates of asynchronous, G1/S- or G2/M-arrested HeLa cells; type: biochemical, human; conditions: G2/M phase compared to asynchronously growing HeLa cells
Experimental: For cell cycle examples, HeLa cells were synchronized by double thymidine block for G1/S-arrest and by 0.2 μg/ml nocodazole for G2/M-arrest as described (Dephoure et al. 2008 Proc Natl Acad Sci USA 105: 10762-10767). Synchronization was confirmed by flow cytometry.
(§3) For cell lysis, the media were removed, and cells were washed with ice-cold phosphate-buffered saline (PBS) and lysed with ice-cold lysis buffer (10 mM K2HPO4 pH 7.5, 1 mM EDTA, 10 mM MgCl2, 50 mM β-glycerophosphate, 5 mM EGTA, 0.5% Nonidet P-40, 0.1% Brij 35, 0.1% deoxycholic acid, 1mM sodium orthovanadate, 1mM phenylmethyl-sulfonyl fluoride, 5 μg/ml leupeptin and 5 μg/ml pepstatin A). Lysates were centrifuged at 10,000 rpm for 10 min to remove cell debris, and clear supernatant was used for immunoblotting and in vitro kinase assays. Protein concentration was determined by Bradford assay (Biorad, Hercules, Calif.).
as §1
(§4) Forty-five individual in vitro kinase reaction mixtures were combined and desalted by using Sep-Pak C18 cartridge (Waters, Milford, Mass.). Phosphopeptides were enriched by immobilized metal ion chromatography (IMAC) with 20 μl of beads (Phos-Select iron affinity gel; Sigma, St. Louis, Mo.) and subsequently desalted by using Empore C18 solid phase extraction disks (3M, St. Paul, Minn.) as described previously.
(§5) Quantitation of the target peptide-internal standard ratios was performed by first constructing the extracted ion chromatogram for the most abundant charge state for each peptide using a ±10 ppm window. Chromatograms were integrated using Qual/Quan browser (Xcalibur 2.0.5, Thermo Fisher, San Jose, Calif.). Since the phosphorylated peptides generated from the in vitro kinase reactions were chemically identical to the internal standards, they were assumed to have the same ionization efficiency. Therefore, the amount of each phosphorylated peptide was calculated by direct ratio to the internal standard level.
(§6) To test substrate suitability in a multiplexed assay, the phosphorylation activities were measured using […] of each substrate peptide, 6 μg lysate, and 5 mM ATP in a plate format. Reactions proceeded for 60 minutes followed by acidification and the addition of isotope-labeled reference peptides. After pooling 45 samples, phosphopeptide enrichment was followed by liquid-chromatography (LC) separation and on-line peptide detection by high-resolution mass spectrometry.
In order to examine target peptides with cell-cycle-dependent phosphorylation, kinase activities in asynchronously growing HeLa cells were profiled and the profiles were compared with those of cells synchronized in G1/S and G2/M phase using a double-thymidine block and nocodazole arrest, respectively (FIG. 3B).

[4] = test system: HEK293 cell lysates; assay: Single-reaction 90-substrate KAYAK assay, HEK293 lysates with or without insulin; type: biochemical, human; conditions: for phosphorylation in response to insulin stimulation: 5 μM each peptide, HEK293 lysate
Experimental: (§7) For stimulation of HEK293 cells or HeLa lines, cells were treated with insulin (100 nM; 10-30 min) EGF (50 ng/ml; 10 min) or phorbol 12-myristate 13-acetate (PMA; 50 or 100 ng/ml; 10 -30 min) at 37° C. for the indicated times after overnight serum-starvation.
Alternatively, cells were washed with PBS once and lysed with ice-cold lysis buffer, 10 mM potassium phosphate, pH 7.0, containing 0.5% NP-40, 0.1% Brij 35, 0.1% deoxycholic acid, 1 mM ethylenediaminetetraacetic acid (EDTA), 5 mM ethylene glycol tetraacetic acid (EGTA), 10 mM MgCl2, 50 mM β-glycerophosphate, 1 mM Na3VO4, 2 mM dithiothreitol (DTT) and protease inhibitor cocktail (Complete, Roche Applied Science, Indianapolis, Ind.). Homogenates were centrifuged at 10,000 rpm for 15 min at 4° C., and the supernatant was used as lysate. Protein concentration was quantified by a modified Bradford assay (Pierce).
as §1
Internal standard heavy peptides (5 pmol each) were added as a mixture to the terminated reactions followed by desalting with a solid phase extraction cartridge (SepPak tC18 (50 mg), Waters, Milford, Mass.). Phosphopeptides were enriched as described (Villen et al. 2008 Nat Protoc 3: 1630-1638). […]
For KAYAK analyses, phosphopeptides were dissolved in 5% FA and injected onto a 125-μm-internal diameter fused silica column packed with Magic C18 AQ material (Michrom Bioresources, Auburn, Calif.). Peptides were separated using a two-solvent system: solvent A (0.125% FA and 3% ACN in H2O), solvent B (0.125% FA in ACN) over 32 min gradient, and eluting peptides were directly analyzed using an LTQ-Orbitrap mass spectrometer (Thermo Scientific, San Jose, Calif.) equipped with the electron transfer dissociation option. […]

[5] = test system: HEK293 cell lysates; assay: KAYAK in vitro kinase assay, individual reactions, lysates of starved, insulin- or EGF-stimulated HEK293 cells; type: biochemical, human; conditions: for E: changed phosphorylation in EGF stimulated condition: EGF-stimulated compared to starved HEK293 cells; for increase in phosphorylation after EGF: EGF-stimulated vs serum-starved HEK293 lysate; for increase in phosphorylation after insulin: insulin-stimulated vs serum-starved HEK293 lysate
Experimental: as §7, §3, §1, §4, §5, §6
The ability of the peptides to report specific changes in kinase activation after pathway stimulation was examined herein. Lysates from HEK293 cells were collected after insulin or EGF treatment and were compared to their activities in the serum-starved state using the KAYAK approach. Western blot analysis of lysates from cells in which the PI3K and MAPK pathways were activated, as indicated by elevated phospho-Akt and phospho-ERK1/2 levels, respectively, is shown in FIG. 1D. […]

[6] = biological target: T1, recombinant RSK1 (Homo sapiens, UniProt Q15418); assay: In vitro peptide phosphorylation by purified RSK; type: biochemical
T1 construct: 90 kDa ribosomal S6 kinases 1 (RSK1, 1-735); purchased Cell Signaling Technology (Danvers, Mass.)
Excerpt: (§8) Reaction mixture was supplemented with 0.1% BSA. Other conditions were the same as in FIG. 10A.
(§9) Purified human active kinases of Akt1 (full length), extracellular signal-regulated kinase 1 (ERK1, 1-379), mitogen-activated protein kinase kinase 1 (MEK1, 1-393), 90 kDa ribosomal S6 kinases 1 (RSK1, 1-735), cAMP-dependent protein kinase (PKA) catalytic subunit-α (PKA Cα, 1-351), protein kinase Cα (PKCα, full length), epidermal growth factor (EGF) receptor (EGFR, 672-1210), platelet-derived growth factor (PDGF) receptor α (PDGFRα, 550-1090), vascular endothelial growth factor (VEGF) receptor 1 (VEGFR1 784-1338), Src (full length), casein kinase 2 (CK2, full length), Aurora A (1-403), AMP-activated protein kinase α1β1γ1 (AMPK α1β1γ1, full length), glycogen synthase kinase-3α (GSK-3α, 1-483) and MAP/microtubule affinity-regulating kinase 1 (MARK 1, full length) were obtained from Cell Signaling Technology (Danvers, Mass.). Cdc2/cyclin B1 (full length) and insulin-like growth factor (IGF)-I receptor (IGFIR, 959-1367) were obtained from Upstate (Temecula, Calif.).
as §1, with “Each substrate peptide (250 pmol) was mixed to a final concentration of 5 μM in the 50 μL reaction mixture.” left out
as §2

[7] = biological target: T2, activated, purified Akt (Homo sapiens, UniProt P31749); assay: In vitro peptide phosphorylation by purified Akt; type: biochemical; conditions: control, 2 ng purified kinase
T2 construct: Purified human active kinases of Akt1 (full length); purchased Cell Signaling Technology (Danvers, Mass.)
Excerpt: as §8, §9
Peptides were synthesized, purified and quantified as described in Yu et al. 2009 Proc Natl Acad Sci USA 106: 11606-11611, hereby incorporated by reference herein in its entirety. […] Alternatively, reactions were performed using 6 μg cell lysate aliquotes mixed to a final volume of 20 μl. […]

T2 sequence (P31749 whole entry): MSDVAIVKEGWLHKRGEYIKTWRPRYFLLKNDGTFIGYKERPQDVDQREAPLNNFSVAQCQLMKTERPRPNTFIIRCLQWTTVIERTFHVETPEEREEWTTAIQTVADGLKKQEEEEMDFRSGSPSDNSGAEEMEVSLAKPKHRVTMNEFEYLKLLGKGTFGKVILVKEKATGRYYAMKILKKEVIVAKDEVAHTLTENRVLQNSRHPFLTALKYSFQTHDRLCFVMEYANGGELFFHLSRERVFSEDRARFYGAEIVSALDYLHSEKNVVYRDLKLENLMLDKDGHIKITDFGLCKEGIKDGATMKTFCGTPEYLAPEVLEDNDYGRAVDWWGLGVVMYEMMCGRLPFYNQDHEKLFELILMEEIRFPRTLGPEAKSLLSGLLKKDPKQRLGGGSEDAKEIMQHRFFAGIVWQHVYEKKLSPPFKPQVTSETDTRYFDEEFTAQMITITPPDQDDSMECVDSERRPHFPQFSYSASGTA
T1 sequence (Q15418 whole entry): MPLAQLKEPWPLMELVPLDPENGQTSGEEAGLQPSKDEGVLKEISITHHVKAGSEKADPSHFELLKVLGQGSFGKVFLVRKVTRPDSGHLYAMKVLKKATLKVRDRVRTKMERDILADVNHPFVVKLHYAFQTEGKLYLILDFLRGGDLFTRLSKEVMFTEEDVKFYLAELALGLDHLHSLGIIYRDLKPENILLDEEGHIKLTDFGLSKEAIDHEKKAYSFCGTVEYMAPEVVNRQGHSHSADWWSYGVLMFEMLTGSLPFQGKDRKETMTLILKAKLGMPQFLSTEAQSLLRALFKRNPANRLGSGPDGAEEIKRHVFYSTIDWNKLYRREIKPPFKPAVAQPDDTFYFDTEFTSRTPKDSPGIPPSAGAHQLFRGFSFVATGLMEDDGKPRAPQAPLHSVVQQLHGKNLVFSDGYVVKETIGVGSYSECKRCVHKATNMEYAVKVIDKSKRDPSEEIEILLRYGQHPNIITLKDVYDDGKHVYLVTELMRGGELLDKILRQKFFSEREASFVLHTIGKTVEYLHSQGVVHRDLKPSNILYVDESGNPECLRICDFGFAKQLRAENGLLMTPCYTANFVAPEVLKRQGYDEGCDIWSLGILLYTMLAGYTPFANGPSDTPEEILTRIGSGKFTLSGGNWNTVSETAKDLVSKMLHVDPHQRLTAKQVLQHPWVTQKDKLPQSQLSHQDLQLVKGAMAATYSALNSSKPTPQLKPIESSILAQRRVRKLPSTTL

Compound	effect on insulin-stimulated phosphorylation of peptide E11 [1]	G2/M: changed phosphorylation [3]	phosphorylation in response to insulin stimulation [4]	E: changed phosphorylation in EGF stimulated condition [5]	increase in phosphorylation after EGF [5] [fold]	increase in phosphorylation after insulin [5] [fold]	also measured
O=c1[nH]c2ccccc2n1C1CCN(Cc2ccc(-c3nc4cc5[nH]cnc5cc4nc3-c3ccccc3)cc2)CC1 [Akt inhibitor VIII]	–	–	–	–	–	–	effect on phosphorylation rate of the A3 peptide [1]: decreased
C[S+]([O-])c1ccc(-c2nc(-c3ccncc3)c(-c3ccc(F)cc3)[nH]2)cc1 (stereo not drawn) [SB203580]	paradoxical upregulation	–	–	–	–	–	–
N#CC(=C(/N)Sc1ccccc1N)/C(C#N)=C(\N)Sc1ccccc1N [U0126]	blocked	–	–	–	–	–	effect on EGF-stimulated phosphorylation of peptides B6, C6, C11 and G5 ([2]; 5 μM, 1 hr pretreatment, HEK293): blocked; RSK-equivalent activity of lysate, peptide C6 as substrate ([2]; cells pretreated with U0126 then stimulated with EGF, EGF alone approximately 0.6 ng per μg): 0.2 ng RSK/μg lysate; effect on PMA-induced increase in phosphorylation of RSK peptides ([2]; prior treatment of cells, HEK293): reversed
RKRLISSVEDPFR (The sequence was designed and synthesized) [E11]	–	− (A change of more +2 fold and −2 fold is indicated by “+” and “−”, respectively.)	increased phosphorylation	+ (A change of more +2 fold and −2 fold is indicated by “+” and “−”, respectively.)	2.3	1.7	increase of phosphorylation rate with insulin ([4]; HEK293): more than 2 fold
RPRAATFPFR (The sequence was designed and synthesized) [A3]	–	–	increased phosphorylation	+ (A change of more +2 fold and −2 fold is indicated by “+” and “−”, respectively.)	2.9	4.6	I: changed phosphorylation in insulin stimulated condition ([5]; insulin-stimulated compared to starved HEK293 cells): ++ (A change of more than +4 and −4 fold is indicated by “++” and “−−”, respectively.)
TKRSGSVYEPPFR (The sequence was designed and synthesized) [C6]	–	− (A change of more +2 fold and −2 fold is indicated by “+” and “−”, respectively.)	–	+ (A change of more +2 fold and −2 fold is indicated by “+” and “−”, respectively.)	–	–	phosphorylation by recombinant RSK1 in vitro [6]: robustly phosphorylate; phosphorylation by Akt [7]: not significantly phosphorylated
